Data: the NIST ThermoML archive (doi:10.1016/j.fluid.2013.08.022)

Assay: wn = mass fraction of the nth substance listed
Settings: 298.15 K, 101 kPa, Liquid; for viscosity: Cone and plate viscometry; for mass density: Vibrating tube method

| Compound | viscosity (w1 = 1) | mass density (w1 = 1) | viscosity (w2 = 0) | viscosity (w2 = 0.25) | viscosity (w2 = 0.5) | viscosity (w2 = 0.75) | mass density (w2 = 0) | mass density (w2 = 0.25) | mass density (w2 = 0.5) | mass density (w2 = 0.75) |
| --- | --- | --- | --- | --- | --- | --- | --- | --- | --- | --- |
| CC#N [acetonitrile] + CCOC(=O)OCC | 0.34 mPa·s | 776.85 kg/m3 |  |  |  |  |  |  |  |  |
| CCOC(=O)OCC [diethyl carbonate] + CC#N |  |  | 0.74 mPa·s | 0.65 mPa·s | 0.57 mPa·s | 0.45 mPa·s | 969.17 kg/m3 | 921.12 kg/m3 | 873.25 kg/m3 | 824.87 kg/m3 |
